Assay [1] concerns LAD2 cells. In words: Mitochondria-induced degranulation (beta-hex release) after P2X7 receptor inhibitor pre-treatment. The settings on record: pre-incubation 30 min; beta-hex release 30 min after stimulation. It counts as cell-based, human. How it is done:
FIG. 10 illustrates that mt component activation of LAD2 cells is P2X7-receptor-dependent. LAD2 cells were pre-treated with P2X7 receptor inhibitor for 30 min and then stimulated with mt components. Different concentration of CpG-ODN [ISOLATED fomyl-peptides?] was used to stimulated LAD2 cells (FIG. 10A). LAD2 cells were treated with a P2X7 receptor inhibitor (FIG. 10B). Beta-hex release was measured 30 mins after stimulation. (n=3; *p<0.05, compared to control). FIG. 10C: live LAD2 cells were stained with stained with Fura-2to measure intracellular calcium changes in response to different concentrations of mt components.
We then investigated which components from sonicated mitochondria may activate LAD2 cells. ATP has been reported to stimulated human mast cell degranulation (Cohen et al., 2001, Biochemistry 40:6589-97). Therefore, we tested if inhibition of P2X7 receptors, the primary receptor of ATP, can block the effects of mitochondrial components.

Assay [2] deals with peripheral sensory neurons. Conditions: Inagaki 2010; cited from earlier work.
The next assay relates to rat mast cells. Conditions: rat mast cells (Sengoku 2000); cited from earlier work.
Another assay has as its system mouse model of AD. The settings on record: mouse model of AD (Inagaki 2010); cited from earlier work.
Assay [3] deals with LAD2 cells. In words: Mitochondrial translocation in live mast cells by confocal microscopy (MitoTracker/LysoTracker). It is filed as cell-based, human. How it is done:
LAD2 cells, mast cells derived from a human leukemia patient,were stained with MitoTracker probe (20 nM) for 20 min (middle panels) and LysoTracker DND probe (50 nM) for 30 min (left panels). The cells were then moved to glass bottom culture dishes and observed by TSC SP2 Confocal microscopy. […] The left panels show granules in green. The middle panels represent mitochondria florescence. The right panels represent images merged from the two previous panels. […] Merged images (as described above) of 100 cells randomly selected from each experiment (n=3) are scored by three different operators each time. […] Confocal images from 19 resting cells and 20 degranulating cells (SP 2 μM, 30 min) were randomly selected for analysis. Mitochondria numbers were calculated by ImageJ software using a “mitochondria calculator” plugin.
(§1) FIG. 2 illustrates that SP-stimulated degranulation and pre-stored TNF secretion is blocked by the mitochondrial fission protein Drp1 inhibitor (MDIVI-1) and Drp1-silencing siRNA. LAD2 cells were treated with MDIVI-1 (40 μM) for 15 min at 37° C. FIG. 2A: Mitochondrial morphology was evaluated by Confocal microscopy in normal LAD2 cells with or without stimulation with SP (2 μM, 30 min, 37° C.). Left panels represent granules; middle panels show mitochondria and the right panels are merged from the previous two. The images shown are representative of more than 40 cells studied. […] LAD2 cells were pretreated with MDIVI-1 (40 μM) for 30 min and then stimulated with SP (1 or 2 μM) for 30 min at 37° C. β-hexosaminidase was measured spectrophotometrically and TNF was measured by ELISA.
Very few mitochondria could be found in the cell surface region. It is almost impossible to distinguish individual mitochondria from this pool by confocal microscopy. Since the average pH of mast cell secretory granules is 5.5, LysoTracker (left panels) was used as a dye to stain the granules. After SP (2 μM) stimulation for 30 min at 37° C., mast cells underwent rapid degranulation, during which mitochondrial particles translocate throughout the cell (FIG. 1A). […]

For assay [4], the system named is LAD2 cells. In words: Pre-stored TNF secretion measured by ELISA. It is filed as cell-based, human. Conditions: MDIVI-1 40 μM pretreatment; SP 1 and 2 μM, vs SP alone. How it is done: as §1
(§2) In order to rule out the possibility that mitochondrial translocation at the cell surface is a bystander effect secondary to cell shape changes during degranulation, the function of Drp1 in mast cell degranulation was investigated. Pretreatment of LAD2 mast cells with the mitochondria] Drp1 inhibitor MDIVI-1 at 40 μM for 15 min at 37° C. (Cassidy-Stone, et al. 2008, Dev. Cell 14:193-204) inhibited mitochondrial translocation (FIG. 2A) despite addition of SP (2 μM for 30 min).

The subject of assay [5] is LAD2 cells. As to the kind of experiment: SP-triggered beta-hexosaminidase release (degranulation index). It counts as cell-based, human. Conditions: MDIVI-1 40 μM pretreatment; SP 1 and 2 μM, vs SP alone. How it is done:
as §1, §2

In assay [6] the test system is LAD2 cells. In words: ATP and Cytochrome C in supernatant fluid of stimulated cells. Conditions: SP-stimulated LAD2 cells. It is filed as cell-based, human.
Assay [7] relates to murine mast cell line and isolated murine peritoneal mast cells. Conditions: SP 0.01 to 1 μM; not IL-1, IL-3, IL-4, IL-6 or GM-CSF; cited from earlier work.
For assay [8], the system named is isolated cardiac cell mitochondria. Conditions: SP concentrations higher than 1 μM; cited from earlier work.
The test system of the next assay is Drp1. As to the kind of experiment: Western blot of Drp1 phosphorylation at Ser-616. It is filed as cell-based, human. Conditions: SP 2 μM for 30 min, LAD2 mast cells. The text has this: Antibodies against the Ser-616 phosphorylated form of Drp1 was purchased from Cell Signaling based in Massachusetts, USA.
To confirm the involvement of Drp1, the State of phosphorylation of Drp1 at the amino acid serine-616 (Ser-616) was investigated through western blot analysis.
A general note: In western blotting, separated proteins are transferred to a membrane and probed.

Assay [9] relates to LAD2 cells. Conditions: SP 1 or 2 μM for 30 min (Kulka 2007); cited from earlier work.
The subject of assay [10] is human skin mast cells. In words: Transmission electron microscopy of mitochondria in skin mast cells. It counts as cell-based. The text has this: Mitochondria are shown within white rectangles. White asterisks represent released granular materials. FIG. 5B charts the number of mitochondria visible under electron microscope and FIG. 5C charts the percentage of mitochondria close to the cell surface in each cell as semi-quantitated from high magnification glossy prints by three independent operators. Magnification: 13,800×; (n=3; *p<0.05 compared to control).
Observations using Transmission Electron Microscopy (TEM) (Theoharides, et al. 1998, Endocrinology 139:403-13) indicate translocation of mitochondria particles to sites of exocytosis. Mitochondria of unstimulated human skin mast cells are located around the cell nucleus and appear intact (FIG. 5A, left side). On the contrary, mitochondria of activated mast cells are much smaller than mitochondria from control cells and are located close to secretory granules undergoing exocytosis (FIG. 5A, right side).

Assay [11] has as its system human skin mast cells. Conditions: cited from earlier work.
Assay [12] concerns LAD2 cells. As to the kind of experiment: mtDNA (Mt-7s, Mt-CytB) in supernatant fluid by real-time PCR. It is filed as cell-based, human. The settings on record: 10 μM SP, 60 minutes. How it is done: Cell viability (D) was measured by Tulubin-Blue staining.
The amount of these two genes, MT-7s DNA and MT-CytB, which are unique to mtDNA and not present in regular human genomic DNA, increased 200 times in SP-stimulated cells (10 μM SP) compared with that in the control as detected by real-time PCR (FIG. 7A). In contrast, genomic DNA for glyceraldehyde 3-phosphate dehydrogenase (GAPDH) is not detected (Hu, VIC TAMRA, data not shown).
A general note: Real-time PCR tracks product formation cycle by cycle.

The values below come from US20130337453A1, “EXTRACELLULAR MITOCHONDRIA-BASED SCREENING AND TREATMENT” (TUFTS UNIVERSITY, priority 2010, published 2013).

“Also recorded” adds a separate entry of the source.

With `Cl.Clc1cccc(-c2nnnn2Cc2cccnc2)c1Cl.O` [A-438079 hydrochloride hydrate], the “block of mitochondria-induced degranulation” value in the assay on LAD2 cells [1] is listed as 40%.
Consider `C=CC[C@@H]1/C=C(\C)C[C@H](C)C[C@H](OC)[C@H]2O[C@@](O)(C(=O)C(=O)N3CCCC[C@H]3C(=O)O[C@H](/C(C)=C/[C@@H]3CC[C@@H](O)[C@H](OC)C3)[C@H](C)[C@@H](O)CC1=O)[C@H](C)C[C@@H]2OC` [FK506, tacrolimus], for which the “SP content of peripheral sensory neurons” value in [2] is listed as “deplete”. For the same compound, the “secretion of IgE-induced histamine” value in the assay with rat mast cells is given as “inhibit”. In the assay on mouse model of AD, the pruritus result is reported as “prevent”.
With `COc1cc(-n2c(=S)[nH]c3ccccc3c2=O)c(Cl)cc1Cl` [MDIVI-1], the mitochondrial translocation entry in the assay with LAD2 cells [3] (MDIVI-1 40 μM pretreatment 15 min, 37° C., SP 2 μM for 30 min) is listed as “inhibited”. Moreover, the “secretion of pre-stored TNF” value in the assay on LAD2 cells [4] was “significantly inhibited”. For the same compound, the “SP-triggered β-hexosaminidase release” value in the assay with LAD2 cells [5] is “significantly inhibited; also recorded: significant inhibition”.
Consider `CSCC[C@H](NC(=O)[C@H](CC(C)C)NC(=O)CNC(=O)[C@H](Cc1ccccc1)NC(=O)[C@H](Cc1ccccc1)NC(=O)[C@H](CCC(N)=O)NC(=O)[C@H](CCC(N)=O)NC(=O)[C@@H]1CCCN1C(=O)[C@H](CCCCN)NC(=O)[C@@H]1CCCN1C(=O)[C@@H](N)CCCNC(=N)N)C(N)=O` [SP, Substance P], for which the “percentage of LAD2 cells containing mitochondria undergoing translocation” value with LAD2 cells [3] (SP 2 μM, 30 min, 37° C., 20% in control cells) was “about 55%”. Besides, in the assay with LAD2 cells [3] (after SP stimulation (2 μM, 30 min), ImageJ count), the “number of mitochondria close to the cell surface” value was “significant increase”. In addition, the “Cytochrome C (Cyt C) in supernatant fluid” value in the assay with LAD2 cells [6] is reported as “marked increase”. In addition, in the assay with LAD2 cells [6] (dosage-dependent on SP), the “ATP level in supernatant fluid” value is “marked increase”. For the same compound, the “gene expression and release of cytokines” value in assay [7] is “induce selective gene expression and release of TNF”. In addition, the “rate of oxygen consumption” value in assay [8] was “enhance”. Also, the “Drp1 phosphorylation at Ser-616” value in the assay on Drp1 is “Drp1 phosphorylation”. The “degranulation of pre-stored TNF” value in the assay with LAD2 cells [9] was “activates degranulation”. In addition, the “number of mitochondria visible under the electron microscope” value with human skin mast cells [10] (SP-activated skin mast cells vs control) was “increased significantly”. Also, the “percentage of mitochondria translocated close to cell surface” value in the assay on human skin mast cells [10] (SP-activated skin mast cells, control 25%) came to 75%. Also, the “increase in percentage of mitochondria translocated close to cell surface” value with human skin mast cells [10] (SP-activated vs control (25% to 75%)) stood at 200%. Besides, the “de novo TNF gene expression and release” value in the assay with human skin mast cells [11] (SP 0.3-30 μM (Okayama 1998)) was “selectively induced only de novo TNF gene expression and release”. The “histamine and TNF release” value with human skin mast cells [11] (SP 0.8-100 ηM) is “induced histamine and de novo synthesized TNF release”. Moreover, the “amount of MT-7s DNA and MT-CytB in supernatant, increase vs control” value in the assay with LAD2 cells [12] came to 200 times.
